Measured values published in a melting point compilation (Tetko et al.; mined from patent text by program, amines drawn as free bases though some values may be those of a salt).

SMILES | melting point [°C]
C/C(=C\c1ccc(C(F)(F)F)cc1)[C@H]1OC[C@H](SCc2ccc(Cl)cc2)CO1 | 93 to 95
CCCCc1ncc(/C=C(\Cc2ccc(OC)s2)C(=O)O)n1Cc1ccccc1Cl | 184 to 186
CCCCCCCCCCCCC(Oc1ccc(O)c(C(C)(C)C)c1)C(=O)OCC (stereo not drawn) | 45 to 48
Cc1cc(C(F)(F)F)nn1CC(=O)N1CCC(c2nc(C3=NOC(c4cccc(-n5cncn5)c4)C3)cs2)CC1 (stereo not drawn) | 83 to 85
CCCCCCCCCCS(=O)(=O)c1ccc(O)c(C(=O)Nc2cccc(C(F)(F)F)c2)c1 | 108 to 109
CC(C)(O)Cn1c(CCO)nc2c(N)nc3cccnc3c21 | 194 to 195
CCCCCCCNC(=O)Nc1ccc(N2CCCC2)cc1C(=O)NCC1CCN(C(c2ccccc2)c2ccccc2)CC1 | 182 to 184
COc1cccc(Cc2cc3ccc4ccccc4n3n2)c1 | 82 to 84
C=CCCO[C@@H](Cc1ccc(OCCc2nc(-c3ccc(C(C)C)cc3)oc2C)c2ccsc12)C(=O)O | 124 to 126
COc1ccc(-c2ccc(C(=O)Nc3ccc4cc(CN5CCCCC5)cnc4c3C)c(F)c2)cc1 | 191 to 192
OCC1OC(OCc2ccccc2)C(OCc2ccccc2)C(OCc2ccccc2)C1OCc1ccccc1 (stereo not drawn) | 99 to 101
NS(=O)(=O)OCCCOc1ccc(-n2ccnc2)cc1 | 105 to 106
C[C@H]1Cn2c(=S)[nH]c3cccc(c32)CN1CC1CC1 | 197
Cc1ccc(O)c(C)c1O | 102 to 104
CC(=O)n1c(=O)n(CCN2CCC(C(=O)c3ccc(F)cc3)CC2)c(=O)c2ccsc21 | 137 to 141
Cc1ccc(CN2CCN([C@@H](CNS(=O)(=O)c3ccc(OCc4cc(C)nc5ccccc45)cc3)C(=O)NO)CC2)cc1 | 170
O=C(O)c1ccc(-c2cnc3c(O)ncnc3n2)cc1 | > 300
CC(C(=O)N(c1ccccc1)c1ccccc1)N1C(=O)c2ccccc2C1=O (racemic) | 89
O=C1c2ccccc2C(O)(c2ccccc2)N1CCc1ccc(O)cc1 (stereo not drawn) | 188
O=C(Cc1c[nH]c2ccccc12)Nc1ccccc1C(=O)O | 205 to 207
CCn1nc(OCCCc2ccc(OC(C)C)cc2OCc2ccc(C(F)(F)F)cc2)cc1CCC(=O)O | 75 to 76
CC(C)c1nc(CN)n(C)c1Sc1cccc(Cl)c1 | 99 to 101
Cc1ccc(NCc2ccc(/C=C/C(=O)O)cc2)cc1Nc1nccc(-c2cccnc2)n1 | 234 to 242
CC(C)(C)c1cc(O)c(N)c([N+](=O)[O-])c1 | 180 to 181
COc1ccc(OC)c(C(=O)C=Cc2cccc(C(=O)O)c2)c1 | 152 to 155

SMILES | melting point [°C]
CCOC(=O)C1=C(COCCNS(=O)(=O)NC(=O)c2ccco2)NC(C)=C(C(=O)OC)C1c1ccccc1Cl (stereo not drawn) | 138
CN(C)N=Cc1cc2c(cn1)[nH]c1ccccc12 | 203 to 206
Cc1cc(C)cc(Oc2c(C(C)C)c(=O)[nH]c(=O)n2CC2CCCC2)c1 | 157 to 158
CC(=O)N(C)c1ccc(C(=O)N2CCN(CCc3ccc(Br)cc3)CC2)cc1 | 161 to 162
COc1cc2c(Cl)c(C#N)cnc2c(OC)c1OC | 161 to 163
CC(=O)NCC1CN(c2ccc(N3CCN(c4nnc(C)o4)CC3)c(F)c2)C(=O)O1 (stereo not drawn) | 212 to 214
N=C(N)Nc1nc(C(=O)NCC(=O)NC(CC(=O)O)c2cccnc2)cs1 (racemic) | 186
CCOC(=O)C1=CNC2=C(C(=O)OCC)CCC(C)N2C1=O (stereo not drawn) | 138 to 140
CC1(C)C(=O)NC(=O)c2cc3nc(-c4ccncc4)[nH]c3cc21 | 218 to 221
CC(C)C(NC(=O)c1ccc(C(=O)NCC(=O)O)cc1)C(=O)N(CC(=O)NC(C(=O)C(F)(F)F)C(C)C)C1Cc2ccccc2C1 (mixture of isomers) | 88 to 91
COC(=O)Cc1cc(C(=O)c2ccccc2Cl)ccc1O | 119
CCOC(=O)c1cc2c(C(F)(F)F)coc2nc1C(=O)OCC | 50 to 55
CC1(C)CON(Cc2ccc(NC(=O)c3ncccc3C(=O)O)cc2Cl)C1=O | 94 to 96
O=S(=O)(c1ccc(F)cc1)c1c[nH]c2ncccc12 | 212 to 213
CCOC(=O)C(=CNc1ccccc1)C(=O)OCC | 45 to 46
CCCCCCCCCCCCCCOC(=O)CCCCc1cc(OC(C)=O)c(OC(C)=O)c([N+](=O)[O-])c1 | 46 to 47
Cc1cc(NS(=O)(=O)c2ccc(S(C)(=O)=O)cc2)cc(C)c1S(=O)(=O)C[N+](=O)[O-] | 192 to 194
COc1ccc(N2C(=O)N(c3ccccc3)c3nc(Nc4ccccc4)ncc3C2C(C)C)cc1 (stereo not drawn) | 229 to 235
CC(C)(C)OC(=O)c1nc(-c2ccc(Cl)cc2Cl)n(-c2ccc(Cl)cc2)c1Br | 198 to 200
Cc1c[nH]c2c([N+](=O)[O-])ccc(Cl)c2c1=O | > 250
COc1ccc(C(=O)C2CCN(C(C)=O)CC2)cc1 | 102 to 105
ClCCn1cnc2c(NC3CCCCC3)nc(Cl)nc21 | 150 to 152
O=C1CC2CCSc3sccc3C2=NN1 (stereo not drawn) | 215 to 217
O=C1C=CC(O)(c2nc3ccccc3s2)C(Cl)=C1 (stereo not drawn) | 140 to 143
CN1C(=O)CCC2(C)c3ccc(Sc4cccc5cccnc45)cc3CCC12 (stereo not drawn) | 241 to 242

SMILES | melting point [°C]
CCCn1nc2c(N)nc3ccccc3c2c1CCCc1cc(-c2cccnc2)no1 | 192 to 193
CCN(CC)c1ccc(C(=O)c2ccccc2C(=O)O)cc1 | 184
CCCCCCCCOc1ccc(-c2ncc(Br)cn2)cc1 | 95
CN1CCC23CCCCC2C1Cc1ccc(Oc2nc(-c4ccccc4)nc4ccccc24)cc13 (single isomer, unassigned; (+)) | 138 to 139
CC(C)c1cccc(C(C)C)c1NC(=O)CNC(c1ccccc1)c1ccc(N(C)C)cc1 (stereo not drawn) | 116 to 117
CCC(=O)c1onc2ccccc12 | 51 to 53
C1=CC(c2ccccc2)Nc2ccccc21 (stereo not drawn) | 75
O=C(O)Cc1c(Cl)cnc2c(NC(=O)c3c(Cl)cccc3Cl)cccc12 | 257 to 259
c1ccc(C2=NN=C(N3CCOCC3)SC2)cc1 | 173 to 174
CS(=O)(=O)c1cc(C(O)C2CCCCC2)c2ccccc2n1 (stereo not drawn) | 83
CCCCCCCCCCCCCCC[C@H]1O[C@@H]1CO | 77 to 78
CCOCCCc1ccc(Oc2ccc3c(c2)C=C(C(=O)OC)CCS3(=O)=O)cc1 | 93 to 94
CC(=O)Oc1cc2cc[nH]c2cc1OC(C)=O | 130 to 131
CCCCCCCC(Oc1ccc(C(C)CC)cc1)C(=O)Nc1c(-c2ccccc2)nc2ccccc2c1C(=O)OC (stereo not drawn) | 89 to 91
Cc1n[nH]c(=O)c(-c2c(F)cc(F)cc2F)c1Cc1ccc(Cl)cc1 | 212 to 215
O=C(NC[C@H]1CN(c2ccc3c(c2)CCCc2cnoc2-3)C(=O)O1)C(F)F | 145 to 180
COc1cc(C=Cc2cc(OC)c(OC)c(OC)c2)cc(Br)c1OC | 180 to 182
O=C(NC(Cl)C(Cl)(Cl)Cl)c1ccccc1O (stereo not drawn) | 113 to 114
O=C1c2c(ccc(F)c2Cl)-n2cnc(-c3noc(CCl)n3)c2[C@@H]2CCN12 | 214 to 217
COc1cc(OC)nc(NC(=O)NS(=O)(=O)c2ncccc2C(O)CF)n1 (stereo not drawn) | 119 to 120
O=c1[nH]c(=O)n(C2CC(F)C(CO)O2)cc1CO (stereo not drawn) | 184
Cc1cc(Cl)nc(N(C=O)c2ccccc2)n1 | 150 to 152
C#CCOCC(=O)Nc1ccccc1 | 142 to 145
CC(C)(C)OC(=O)c1ncn2c1CN(C(=O)N1CCCC1)c1c(F)cccc1-2 | 214
CCOC(=O)C1=C(N)Nc2ccnc(OC(C)C)c2C1c1ccccc1C(F)(F)F (stereo not drawn) | 173 to 175

SMILES | melting point [°C]
C[C@]1(COc2ccc(N3CCS(=O)CC3)cc2)Cn2cc([N+](=O)[O-])nc2O1 | 198 to 200
COc1cc2ncc(N[C@@H]3C[C@@H]4C[C@H]3C[C@H]4O)nc2cc1OC | 190 to 192
ClC1=NCc2ccccc2SC1 | 164 to 168
N#Cc1cccc2c(-c3ccccc3)coc12 | 143 to 145
O=C(CCC(=O)N1CCC[C@H]1C(=O)O)c1ccc(Cl)s1 | 131 to 133
Clc1ccc(Nc2nc3ccccc3o2)c(Cl)c1 | 98 to 99
NS(=O)(=O)c1cccc(-c2noc(-c3cnc4c(C(F)(F)F)cc(-c5ccc(C(F)(F)F)cc5)cn34)n2)c1 | 297
COc1cc2c(cc1OC)CN(c1nc(Cl)nc3cc(OC)c(OC)cc13)CC2 | 183 to 186
CCc1cccc2c(S(=O)(=O)c3ccc(C)cc3)cnnc12 | 133 to 134
O=C(NCCCCCCNC(=O)c1ccc(O)cc1)c1ccc(O)cc1 | 220 to 222
O=C(O)CCc1conc1-c1ccc(F)c(Cl)c1 | 140 to 141
COc1cc(C(O)CN2CCN(C(c3ccccc3)c3ccccc3)CC2)cc(OC)c1OC (stereo not drawn) | 173
CC(C)(C)OC(=O)N[C@@H]1C(=O)N2C(C(=O)OC(C)(C)C)=C(C=O)CC[C@H]12 | 194 to 195
COc1cc(C2=CCCCC2)c(Cl)cc1C(=O)N1Cc2cccn2Cc2ccccc21 | 92 to 98
N[C@@H](C/C(=C\C1CC1)C(=O)O)C(=O)O | 204
FC(F)(F)Oc1ccc(/C=C/c2ccc(CBr)cc2)cc1 | 100 to 102
Cc1cc(NC(=O)NNc2cccc(C#N)c2)ccc1N1CCCCC1=O | 206 to 207
OCCCN1CCN(c2ccccc2)CC1 | 72 to 73
CCc1c([N+](=O)[O-])c(C(N)=O)nn1C1CN(C(c2ccccc2)c2ccccc2)C1 | 254 to 257
Cc1cc(O)cc(C)c1N=Cc1ccccc1O | 145 to 147
COc1ccc(Cc2nc3c(cnn3C(CCCc3ccccc3)C(C)=O)c(=O)[nH]2)cc1 (stereo not drawn) | 129
CS(=O)(=O)N1CCN([C@@H](CNS(=O)(=O)c2ccc(OCc3noc4ccccc34)cc2)C(=O)NO)CC1 | 107
COC(=O)C1Cc2c([nH]c3ccccc23)CN1C(=O)c1ccc(Cl)cc1 (stereo not drawn) | 243 to 244
